Data from patent US10189824B2, “Pyrimidine-diamine dual HSP90/TRAP1 inhibitors” (CalAsia Pharmaceuticals, Inc., priority 2014, dated 2019).

Legend:
[1] = test system: Hsp90 client proteins (Akt1, ERK1) in HEI193; assay: Cellular biomarker assays (Akt1, ERK1 ELISA) in HEI193; format: cell-based, human; details: 48 hour treatment
Procedure: (§1) Cellular biomarker assays: Cells were cultured in culture medium (RPMI-glutamax, 10% FCS, 100 units/ml penicillin, and 100 μg/ml streptomycin). Cells were passaged after lifting using 0.25% trypsin/EDTA, and 3×10^5 cells were seeded in each well of six well plates (total volume 2.5 mL/well). After the cells were cultured for 24 hours, increasing concentrations of Hsp90 inhibitor were added to wells in triplicate from DMSO-containing stock solutions and mixed by gently by stirring. Final DMSO concentration in all wells was 0.25%. The treated cells were then cultured for 48 hours prior to lysate preparation. The culture media was removed from wells, and the wells were washed twice with DPBS containing 1 mM CaCl2 and 0.5 mM MgCl2. […] The protein concentration in the cell lysates was determined using the BCA protein assay kit used according to the manufacturer's recommendations. […] Protein concentrations were determined using a micro-titer plate reader (Model # Synergy HT; BioTek Inc., Winooski, Vt.).
(§2) Akt1 and ERK1 levels in the cell lysates were measured using kits from R&D Systems used according to the manufacturer's recommendations. […] Akt1 and ERK1 levels were determined using a micro-titer plate reader (Model # Synergy HT; BioTek Inc., Winooski, Vt.) (FIGS. 5 and 8).

[2] = test system: Hsp90 client proteins (Akt1, ERK1) in MDA-MB-231 cell line; assay: Cellular biomarker assays (Akt1, ERK1 ELISA) in MDA-MB-231; format: cell-based; details: 48 hours
Procedure: as §1, §2

[3] = test system: mitochondria isolated from HEI193 cells; assay: Analysis of drug accumulation in the mitochondria; format: in vitro ADME, human; details: 20 uM
Procedure: Mitochondria (100 μg) isolated from MDA-MB-231 and […] tumor cell lines were incubated with 20 μM CAP01088 for 30 mins at 30° C. in mitochondrial incubation buffer (MIB: 0.2M sucrose, 10 mM Tris-MOPS, pH 7.4, 5 mM succinaye, 1 mM Pi, 2 μM rotenone, and 10 μM EGTA with modifications as needed). The mitochondria were chilled on ice and collected by centrifugation at 8000 g for 10 min. The supernatant was collected and the mitochondrial pellet was washed twice with MIB and dissolved in lysis buffer (acetonitrile/methanol, 3:1). The concentration of CAP01088 in supernatant and mitochondrial extract was analyzed using a Waters HPLC/Mass spectrometer (FIGS. 6B and 9B).

GBM39 = assay: Cellular efficacy in Mayo Clinic GBM PDX cell line GBM39; format: cell-based
Procedure: (§3) Short-term explant cultures from PDX models were seeded into 96-well Perfecta3D hanging drop plates to form a single spheroid in each well after 2 days. The spheroids were transferred to a round bottom 96 well plate by centrifugation and then incubated with graded concentrations of test compound (8 spheroids per compound concentration). Spheroid volumes were monitored every 6 hours over the course of 5 days using the IncuCyte system (Essen BioScience, MI, US) to provide a growth curve akin to a tumor regrowth assay.

[4] = test system: Mayo Clinic patient derived GBM tumor cells; assay: Mayo Clinic patient derived GBM tumor cell proliferation; format: cell-based; details: 132 hours
Procedure: as §3

[5] = test system: mitochondria isolated from U251MG cells; assay: TMRE assay, TMRE-loaded isolated mitochondria; format: cell-based; details: 30° C.
Procedure: For cell-based assays, cells were treated with various concentrations of the test compounds for 48 hours at 37° C., with 5% CO2. TMRE (200 nM) was then added to wells for 30 min and monitored for changes in fluorescence activity either by fluorescence microscopy using an inverted Zeiss LSM 710 confocal microscope or by spectrophotometry using a fluorescence plate reader (544ex/590em) after washing the cells. Specific TMRE fluorescence was calculated by comparison to matched wells pretreated with 20 uM FCCP for 10 min prior to addition of TMRE. For mitochondria assays, untreated U251MG cells grown to confluence in T75 culture flasks. Mitochondria from these cells were isolated using a mitochondria isolation kit (Thermo Scientific) and loaded with 0.1 mM TMRE in kit buffer at 37° C. for 20 min. After washing, the TMRE-loaded mitochondria (2 ug per well) were incubated in a 96 well black plate with test compounds and monitored kinetically at 30° C. for changes in fluorescence using a fluorescence plate reader (ex 544/em 590). The fluorescence intensity after treatment with 20 um FCCP in control wells corresponded to a fully depolarized state.

[6] = test system: U251MG cell mitochondrial respiration; assay: Mitochondrial respiratory function assay (OCR, Seahorse); format: cell-based; details: U251MG cells, stressed conditions (oligomycin, FCCP, rotenone); within minutes
Procedure: The effect of test compounds on the mitochondrial oxygen consumption rate (OCR) was determined in real time using a Seahorse Xr24 extracellular flux analyzer (Seahorse Bioscience). The cell-based assay was performed essentially as recommended by the manufacturer. Briefly, cells were seeded in a 24 well XF plate using an appropriate cell density. “Flux Pak” cartridge (containing the O2 and H^+ sensitive fluorophores) were hydrated in the XF calibrant solution overnight just prior to running the assay. On the following day, the cells were replenished with XF assay media (unbuffered DMEM containing 10 mM glucose and 2 mM pyruvate) and placed in a CO2 free 37° C. incubator for an additional one hour. Basal OCR was measured before the wells were injected with test compounds. Subsequently, mitochondrial bioenergetics stress was determined by treating the cells sequentially with 0.125 mg/ml Oligomycin (ATP synthase inhibitor), […] FCCP (uncoupler) and […] rotenone (Complex I inhibitor) while continuously measuring the OCR.

[7] = test system: caspase 3/7 activity in U251MG cells; assay: Caspase activation assay (Caspase-3/7 luminescence); format: cell-based; details: 48 h
Procedure: U251MG cells were seeded, maintained, and treated with test compounds as described above for 48 h at 37° C. Quantification of total cellular Caspase-3 and 7 activity was accomplished using a Caspase-3/7 luminescence assay kit (Promega) according to the manufacturer's recommendations and analyzed with a POLARstar Omega micro-titer plate reader (BMG).

Question: With `COc1c(C)cnc(CN(CC2(c3ccc(F)cc3)CCOCC2)c2cc(Cl)nc(N)n2)c1C` [Compound A, 6-chloro-4-N-{[4-(4-fluorophenyl)oxan-4-yl]methyl}-4-N-[(4-methoxy-3,5-dimethylpyridin-2-yl)methyl]pyrimidine-2,4-diamine] as the compound, how does the “Effect on Akt1 and ERK1 levels, HEI193” value [1] read?
Answer: reduction of Hsp90 client proteins

Question: And the “Effect on Akt1 and ERK1 levels, MDA-MB-231” value [2]?
Answer: suppression of Hsp90 client proteins

Question: And the “Accumulation in isolated mitochondria compared to culture medium” value [3]?
Answer: greater than 6 fold

Question: What about the EC50 (GBM39) of the same compound?
Answer: 220 nM

Question: And the “Effect on patient derived GBM tumor cell proliferation” value [4]?
Answer: inhibit

Question: For `COc1c(C)cnc(CN(CCc2ccccn2)c2cc(Cl)nc(N)n2)c1C` [Compound 1, 6-chloro-4-N-[(4-methoxy-3,5-dimethylpyridin-2yl)methyl]-4-N-[2-(pyridine-2-yl)ethyl]pyrimidine-2,4-amine], which “Membrane potential of isolated mitochondria reduced to” value ([5]; 4 uM) is on record?
Answer: 61%

Question: And the “Membrane potential of isolated mitochondria reduced to” value ([5]; 20 uM)?
Answer: 52%

Question: And the “Effect on mitochondrial oxygen consumption rate” value [6]?
Answer: dose-dependent decrease

Question: What about the “U251MG caspase 3/7 activity increase” value ([7]; 50 uM) of the same compound?
Answer: 6.8 fold

Question: What about the “Lowest concentration at which an increase in caspase activity was observed” value ([7]; U251MG) of the same compound?
Answer: 1.6 µM
